Data reported in patent US11065253B2, “Arylquinazolines” (Merck Patent GmbH, priority 2013, dated 2021).
pIC50: −log10 of the molar value. Where two headings read alike, the source gives them in different places. Blank lines part the entries; values can stand above or below the compound they belong to.

Tested on: phospho-serine 2056 DNA-PK in HCT116 cells
Test: DNA-PK phosphorylation at serine 2056 (cellular), ELISA in bleomycin-treated HCT116 cells
Format: cell-based
Settings: read-out: IC50 pDNA-PK
Method in brief: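 After overnight seeding, HCT116 cells received compound with 10 μM bleomycin for 6 h; phospho-DNA-PK ELISA signals were scaled to total DNA-PKcs, DMSO serving as blank.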

[1] = cellular, HCT116 cells, 10 μM bleomycin, six hours
[2] = Homo sapiens, HCT-116, cellular DNA-PK phosphorylation at serine 2056, HCT116 cells
[3] = cellular DNA-PK phosphorylation at serine 2056, HCT116 cells
[4] = Homo sapiens, HCT-116, phospho-serine 2056 DNA-PK, bleomycin-treated HCT116 cells
[5] = Homo sapiens, HCT-116, 6 h, cellular, HCT116 cells, 10 μM bleomycin, six hours
[6] = Homo sapiens, HCT-116, phospho-serine 2056 DNA-PK, bleomycin-treated HCT116 cells, class symbols A-D

SMILES: OC(c1ccc2nccn2n1)c1cc(-c2ncnc3cc(N4CCOCC4)ccc23)c(F)cc1F (stereo not shown) [Example 21, [2,4-Difluoro-5-(7-morpholin-4-yl-quinazolin-4-yl)phenyl]-imidazo[1,2-b]pyridazin-6-ylmethanol]
pIC50 [1]: > 6.30

SMILES: OC(c1ccc(F)c(-c2ncnc3cc(N4CCOCC4)ccc23)c1)c1ncccc1Cl (stereo not shown) [Example 42, (3-Chloro-pyridin-2-yl)-[4-fluoro-3-(7-morpholin-4-yl-quinazolin-4-yl)phenyl]-methanol]
pIC50 [5]: > 6.30

SMILES: COc1ccc(C(O)c2cc(-c3ncnc4cc(N5CCOCC5)ccc34)ccc2F)nn1 (stereo not shown) [Example 357, [2-Fluoro-5-(7-morpholin-4-yl-quinazolin-4-yl)-phenyl]-(6-methoxy-pyridazin-3-yl)-methanol]
pIC50 [4]: 5.30 to 6.30

SMILES: Cc1cncnc1C(O)c1cc(-c2ncnc3cc(N4CCOCC4)ccc23)ccc1Cl (stereo not shown) [Example 418, [2-Chloro-5-(7-morpholin-4-yl-quinazolin-4-yl)-phenyl]-(5-methyl-pyrimidin-4-yl)-methanol (Ena 1)]
pIC50 [3]: 5.30 to 6.30

SMILES: OC(c1cccnn1)c1cc(-c2ncnc3cc(N4CCOCC4)ccc23)c(F)cc1F (stereo not shown) [Example 48, [2,4-Difluoro-5-(7-morpholin-4-yl-quinazolin-4-yl)phenyl]-pyridazin-3-ylmethanol]
pIC50 [5]: 5.30 to 6.30

SMILES: COc1nccnc1C(O)c1cc(-c2ncnc3cc(N4CCOCC4)ccc23)ccc1F (stereo not shown) [Example 394, [2-Fluoro-5-(7-morpholin-4-yl-quinazolin-4-yl)-phenyl]-(3-methoxy-pyrazin-2-yl)-methanol]
pIC50 [2]: 5.30 to 6.30

SMILES: OC(c1ccc(F)c(-c2ncnc3cc(N4CCOCC4)ccc23)c1)c1nccn2cccc12 (stereo not shown) [Example 356, [4-Fluoro-3-(7-morpholin-4-yl-quinazolin-4-yl)-phenyl]pyrrolo[1,2-a]-pyrazin-1-ylmethanol]
pIC50 [4]: > 6.30

SMILES: O[C@H](c1ccc(F)c(-c2ncnc3cc(N4CCOCC4)ccc23)c1)c1nccnc1Cl [Example 27, (R)-(3-Chloro-pyrazin-2-yl)-[4-fluoro-3-(7-morpholin-4-yl-quinazolin-4-yl)phenyl]-methanol]
pIC50 [5]: > 6.30

SMILES: Cn1cnc2ccnc(C(O)c3ccc(F)c(-c4ncnc5cc(N6CCOCC6)ccc45)c3)c21 (stereo not shown) [Example 461, [4-Fluoro-3-(7-morpholin-4-yl-quinazolin-4-yl)-phenyl]-(3-methyl-3H-imidazo[4,5-c]-pyridin-4-yl)methanol]
pIC50 [2]: > 6.30

SMILES: OC(c1ccc(F)c(-c2ncnc3cc(N4CCOCC4)ccc23)c1)c1nncc2sccc12 (stereo not shown) [Example 333, [4-Fluoro-3-(7-morpholin-4-yl-quinazolin-4-yl)-phenyl]thieno[2,3-d}-pyridazin-4-yl-methanol]
pIC50 [4]: > 6.30

SMILES: COc1ncc(Cl)nc1C(O)c1ccc(F)c(-c2ncnc3cc(N4CCOCC4)ccc23)c1 (stereo not shown) [Example 25, (6-Chloro-3-methoxy-pyrazin-2-yl)-[4-fluoro-3-(7-morpholin-4-yl-quinazolin-4-yl)phenyl]-methanol]
pIC50 [5]: > 6.30

SMILES: OC(c1cc(-c2ncnc3cc(N4CCOCC4)ccc23)c(F)cc1F)c1nccnc1OC(F)F (stereo not shown) [Example 449, (3-Difluoromethoxy-pyrazin-2-yl)-[2,4-difluoro-5-(7-morpholin-4-yl-quinazolin-4-yl)-phenyl]methanol]
pIC50 [3]: 5.30 to 6.30

SMILES: OC(c1ccc(F)c(-c2ncnc3cc(N4CCOCC4)ccc23)c1)c1cncc(F)c1Cl (stereo not shown) [Example 2, (4-Chloro-5-fluoropyridin-3-yl)-[4-fluoro-3-(7-morpholin-4-ylquinazolin-4-yl)phenyl]methanol]
pIC50 [5]: > 6.30

SMILES: [2H]C1([2H])OC([2H])([2H])C([2H])([2H])N(c2ccc3c(-c4cc(C(O)c5ccc(OC)nn5)c(Cl)cc4F)ncnc3c2)C1([2H])[2H] (stereo not shown) [Example 244, [2-Chloro-4-fluoro-5-[7-(2,2,3,3,5,5,6,6-octadeuterio-morpholin-4-yl)quinazolin-4-yl]phenyl]-(6-methoxypyridazin-3-yl)methanol]
pIC50 (phospho-serine 2056 DNA-PK, bleomycin-treated HCT116 cells): > 6.30

SMILES: OC(c1ccc(F)c(-c2ncnc3cc(C4=CCOCC4)ccc23)c1)c1nccs1 (stereo not shown) [Example 139, {3-[7-(3,6-Dihydro-2H-pyran-4-yl)-quinazolin-4-yl]-4-fluoro-phenyl}-thiazol-2-ylmethanol]
pIC50 [6]: 4.52 to 5.00

SMILES: OC(c1nccs1)c1cc(-c2ncnc3cc(N4CCOCC4)ccc23)ccc1F (stereo not shown) [Example 170, [2-Fluoro-5-(7-morpholin-4-yl-quinazolin-4-yl)-phenyl]thiazol-2-yl-methanol]
pIC50 [6]: 5.00 to 5.30

SMILES: COc1ccc(C(C(N)=O)c2ccc(F)c(-c3ncnc4cc(N5CCOCC5)ccc34)c2)nn1 (stereo not shown) [Example 308, 2-[4-Fluoro-3-(7-morpholin-4-yl-quinazolin-4-yl)-phenyl]-2-(6-methoxypyridazin-3-yl)acetamide]
pIC50 [4]: 4.52 to 5.00

SMILES: COc1ccc(C(O)c2cc(-c3ncnc4cc(N5CCOCC5)ccc34)c(F)cc2F)nc1 (stereo not shown) [Example 224, [2,4-Difluoro-5-(7-morpholin-4-yl-quinazolin-4-yl)-phenyl]-(5-methoxy-pyridin-2-yl)methanol]
pIC50 [6]: 5.30 to 6.30

SMILES: Cc1cncnc1C(C(N)=O)c1cc(-c2ncnc3cc(N4CCOCC4)ccc23)ccc1Cl (stereo not shown) [Example 407, 2-[2-Chloro-5-(7-morpholin-4-yl-quinazolin-4-yl)-phenyl]-2-(5-methyl-pyrimidin-4-yl)-acetamide]
pIC50 [3]: 5.30 to 6.30

SMILES: Cn1ncc2c(C(O)c3cc(-c4ncnc5cc(N6CCOCC6)ccc45)ccc3F)ncnc21 (stereo not shown) [Example 391, [2-Fluoro-5-(7-morpholin-4-yl-quinazolin-4-yl)-phenyl]-(1-methyl-1H-pyrazolo[3,4-d}-pyrimidin-4-yl)-methanol]
pIC50 [2]: 5.30 to 6.30

SMILES: Cn1cnc2c(C(O)c3cc(-c4ncnc5cc(N6CCOCC6)ccc45)ccc3Cl)ncnc21 (stereo not shown) [Example 371, [2-Chloro-5-(7-morpholin-4-yl-quinazolin-4-yl)-phenyl]-(9-methyl-9H-purin-6-yl)-methanol]
pIC50 [2]: 5.30 to 6.30

The next lines start with the values.

pIC50 [2]: > 6.30
SMILES: OC(c1cc(-c2ncnc3cc(N4CCOCC4)ccc23)c(F)cc1Cl)c1ncnc2sccc12 (stereo not shown) [Example 429, [2-Chloro-4-fluoro-5-(7-morpholin-4-yl-quinazolin-4-yl)-phenyl]thieno[2,3-d}-pyrimidin-4-yl-methanol]

pIC50 [3]: > 6.30
SMILES: OC(c1ccc(F)c(-c2ncnc3cc(N4CCOCC4)ccc23)c1)c1ncnc2ccoc12 (stereo not shown) [Example 471, [4-Fluoro-3-(7-morpholin-4-yl-quinazolin-4-yl)-phenyl]furo[3,2-d}-pyrimidin-4-yl-methanol]

pIC50 [4]: 4.52 to 5.00
SMILES: Oc1ncnc(C(O)c2cc(-c3ncnc4cc(N5CCOCC5)ccc34)ccc2Cl)c1Cl (stereo not shown) [Example 330, 5-Chloro-6-{[2-chloro-5-(7-morpholin-4-yl-quinazolin-4-yl)-phenyl]hydroxy-methyl}pyrimidin-4-ol]

pIC50 [5]: 4.52 to 5.00
SMILES: CN(C)C(=O)c1ccc(C(O)c2cc(-c3ncnc4cc(N5CCOCC5)ccc34)c(F)cc2Cl)nn1 (stereo not shown) [Example 50, 6-{[2-Chloro-4-fluoro-5-(7-morpholin-4-yl-quinazolin-4-yl)phenyl]-hydroxymethyl}-pyridazine-3-carboxylic acid dimethylamide]

pIC50 [1]: > 6.30
SMILES: Cn1nc(C(O)c2cc(-c3ncnc4cc(N5CCOCC5)ccc34)c(F)cc2Cl)ccc1=O (stereo not shown) [Example 45, 6-{[2-Chloro-4-fluoro-5-(7-morpholin-4-yl-quinazolin-4-yl)phenyl]-hydroxymethyl}-2-methyl-2H-pyridazin-3-one]

pIC50 [6]: 5.30 to 6.30
SMILES: Cc1csc(C(O)c2cc(-c3ncnc4cc(N5CCOCC5)ccc34)c(F)cc2Cl)n1 (stereo not shown) [Example 181, [2-Chloro-4-fluoro-5-(7-morpholin-4-yl-quinazolin-4-yl)-phenyl]-(4-methyl-thiazol-2-yl)-methanol]

pIC50 [5]: 5.30 to 6.30
SMILES: COc1cc(Cl)nnc1C(O)c1cc(-c2ncnc3cc(N4CCOCC4)ccc23)c(F)cc1Cl (stereo not shown) [Example 8, [2-Chloro-4-fluoro-5-(7-morpholin-4-yl-quinazolin-4-yl)phenyl]-(6-chloro-4-methoxy-pyridazin-3-yl)methanol]

pIC50 [3]: > 6.30
SMILES: Cn1c(C(O)c2cc(-c3ncnc4cc(N5CCOCC5)ccc34)c(F)cc2Cl)cccc1=O (stereo not shown) [Example 383, 6-{[2-Chloro-4-fluoro-5-(7-morpholin-4-yl-quinazolin-4-yl)-phenyl]hydroxy-methyl}-1-methyl-1H-pyridin-2-one (Ena 1)]

pIC50 [1]: > 6.30
SMILES: OC(c1cccnn1)c1cc(-c2ncnc3cc(N4CCOCC4)ccc23)c(F)cc1Cl (stereo not shown) [Example 47, [2-Chloro-4-fluoro-5-(7-morpholin-4-yl-quinazolin-4-yl)phenyl]-pyridazin-3-ylmethanol]

pIC50 [5]: 5.30 to 6.30
SMILES: OC(c1ccc(Cl)nn1)c1cc(-c2ncnc3cc(N4CCOCC4)ccc23)c(F)cc1F (stereo not shown) [Example 49, (6-Chloro-pyridazin-3-yl)-[2,4-difluoro-5-(7-morpholin-4-yl-quinazolin-4-yl)phenyl]-methanol]

pIC50 [3]: > 6.30
SMILES: OC(c1cc(-c2ncnc3cc(N4CCOCC4)ccc23)c(F)cc1Cl)c1ncnc2ccoc12 (stereo not shown) [Example 452, [2-Chloro-4-fluoro-5-(7-morpholin-4-yl-quinazolin-4-yl)-phenyl]furo[3,2-d}-pyrimidin-4-yl-methanol]

pIC50 [6]: 5.00 to 5.30
SMILES: OCc1csc([C@H](O)c2cc(-c3ncnc4cc(N5CCOCC5)ccc34)c(F)cc2Cl)n1 [Example 186, (R)-[2-Chloro-4-fluoro-5-(7-morpholin-4-yl-quinazolin-4-yl)-phenyl]-(4-hydroxymethyl-thiazol-2-yl)-methanol]

pIC50 [5]: 5.30 to 6.30
SMILES: NC(=O)c1ccc(C(O)c2cc(-c3ncnc4cc(N5CCOCC5)ccc34)c(F)cc2Cl)nn1 (stereo not shown) [Example 62, 6-{[2-Chloro-4-fluoro-5-(7-morpholin-4-yl-quinazolin-4-yl)phenyl]-hydroxymethyl}-pyridazine-3-carboxylic acid amide]
